The results in this text go back to patent publication US11524966B1 (Valo Early Discovery, Inc., priority 2017, dated 2022).

This assay has as its target T1, USP28 (His-tagged USP28-FL-mammalian) (Homo sapiens, UniProt Q96RU2).
T1 construct: Expression of USP28 (1-1077)-TEV-6*His (pTT5 vector); made in house; host or cells: Expi293f cells (pTT5 vector)
T1 sequence (Q96RU2 1-1077): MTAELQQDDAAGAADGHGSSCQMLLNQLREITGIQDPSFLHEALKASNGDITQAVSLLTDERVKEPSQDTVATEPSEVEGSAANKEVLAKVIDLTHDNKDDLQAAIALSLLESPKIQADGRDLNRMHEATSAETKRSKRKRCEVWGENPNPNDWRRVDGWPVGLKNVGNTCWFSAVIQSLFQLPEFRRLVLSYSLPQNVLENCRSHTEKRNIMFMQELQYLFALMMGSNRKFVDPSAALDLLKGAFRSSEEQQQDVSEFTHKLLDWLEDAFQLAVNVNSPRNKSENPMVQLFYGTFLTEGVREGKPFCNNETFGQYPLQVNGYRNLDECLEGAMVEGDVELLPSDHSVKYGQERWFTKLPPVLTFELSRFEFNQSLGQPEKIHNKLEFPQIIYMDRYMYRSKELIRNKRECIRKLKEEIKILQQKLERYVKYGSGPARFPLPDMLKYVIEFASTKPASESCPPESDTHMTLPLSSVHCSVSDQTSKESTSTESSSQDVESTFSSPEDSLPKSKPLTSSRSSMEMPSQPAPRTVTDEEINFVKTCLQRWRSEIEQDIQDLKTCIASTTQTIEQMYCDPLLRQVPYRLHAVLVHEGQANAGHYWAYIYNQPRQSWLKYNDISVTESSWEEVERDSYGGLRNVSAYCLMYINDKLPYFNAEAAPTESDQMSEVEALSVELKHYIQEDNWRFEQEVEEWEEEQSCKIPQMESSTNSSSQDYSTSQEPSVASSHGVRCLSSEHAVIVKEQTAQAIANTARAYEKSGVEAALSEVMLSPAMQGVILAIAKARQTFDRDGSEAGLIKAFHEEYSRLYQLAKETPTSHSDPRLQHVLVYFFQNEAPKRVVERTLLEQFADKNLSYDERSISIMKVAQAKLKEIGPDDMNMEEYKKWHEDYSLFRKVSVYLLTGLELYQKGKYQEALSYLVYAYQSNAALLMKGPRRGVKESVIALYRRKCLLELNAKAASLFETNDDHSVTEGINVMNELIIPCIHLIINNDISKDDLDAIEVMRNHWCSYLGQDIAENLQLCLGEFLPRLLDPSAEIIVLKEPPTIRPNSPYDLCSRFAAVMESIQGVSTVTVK
Briefly: Ubiquitin-Rhodamine 110 Assay for USP28 Activity, Example A-1(a). The class given is biochemical. To be noted: Ubiquitin-Rhodamine 110 assay, Example A-1(a); read-out: USP28 A-1(a) IC50 range. In outline:
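IC50 from 4-parameter logistic fit of percent inhibition versus no-enzyme and DMSO controls; compounds 25 μM to 1.3 nM, 3-fold. Ub-Rh110 cleavage (25 nM, below Km) by […] mammalian-expressed USP28-FL-His ran 45 min at room temperature, stopped with 10 mM citric acid, read ex 485/em 535.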
As for `N#Cc1c(N2CC3CCC(C2)N3)cc2c(c1F)C[C@@H](NC(=O)c1cnc3c(c1)[C@@H]1C[C@@H]1CN3)CO2` [Example 264, (6aS,7aR)-N-[(3R)-6-cyano-7-{3,8-diazabicyclo[3.2.1]octan-3-yl}-5-fluoro-3,4-dihydro-2H-1-benzopyran-3-yl]-5H,6H,6aH,7H,7aH-cyclopropa[c]1,8-naphthyridine-2-carboxamide], the IC50 lay within 0.001 to 0.05 µM.
Under `CN[C@@H]1CN(c2ccc3c(n2)CC[C@H](NC(=O)c2sc4nc(C)ccc4c2N)C3)C[C@]1(C)O` [Example 332, 3-amino-N-[(6S)-2-[(3S,4R)-3-hydroxy-3-methyl-4-(methylamino)pyrrolidin-1-yl]-5,6,7,8-tetrahydroquinolin-6-yl]-6-methylthieno[2,3-b]pyridine-2-carboxamide] stands 0.05 to 0.2 µM; under `CO[C@H]1CCN(c2ccc3c(n2)CC[C@H](NC(=O)c2sc4nc(C)ccc4c2N)C3)C[C@@H]1N` (single isomer, unassigned) [Example 315], 0.05 to 0.2 µM; under `CO[C@H]1CN(c2ccc3c(n2)CC[C@H](NC(=O)c2sc4nc(C)cnc4c2N)C3)C[C@@H]1NC(C)=O` [Example 266, 7-amino-N-[(6S)-2-[(3S,4S)-3-acetamido-4-methoxypyrrolidin-1-yl]-5,6,7,8-tetrahydroquinolin-6-yl]-3-methylthieno[2,3-b]pyrazine-6-carboxamide], 0.2 to 2 µM.
Regarding `Cc1ccc2c(N)c(C(=O)N[C@H]3CCc4nc(N5C[C@H](OC(C)C)[C@@H](N)C5)ccc4C3)sc2n1` [Example 320], the IC50 lay in the range of 0.05 to 0.2 µM.
Under `CO[C@H]1CN(c2ccc3c(n2)CC[C@H](NC(=O)c2sc4nc(C)cc(C)c4c2N)C3)C[C@@H]1NC(C)=O` [Example 293, 3-amino-N-[(6S)-2-[(3S,4S)-3-acetamido-4-methoxypyrrolidin-1-yl]-5,6,7,8-tetrahydroquinolin-6-yl]-4,6-dimethylthieno[2,3-b]pyridine-2-carboxamide] stands 0.05 to 0.2 µM.
As for `CO[C@@H]1CN(c2ccc3c(n2)CC[C@H](NC(=O)c2sc4nc(C)ccc4c2N)C3)C[C@@H]1N` [Example 269, 3-amino-N-[(6S)-2-[(3S,4R)-3-amino-4-methoxypyrrolidin-1-yl]-5,6,7,8-tetrahydroquinolin-6-yl]-6-methylthieno[2,3-b]pyridine-2-carboxamide], the figure is 0.05 to 0.2 µM.
Under `CO[C@H]1CN(c2ccc3c(c2)OC[C@H](NC(=O)c2sc4nc(C)ccc4c2N)C3)[C@@H](C)[C@@H]1N` [Example 333, 3-amino-N-[(3R)-7-[(2S,3S,4S)-3-amino-4-methoxy-2-methylpyrrolidin-1-yl]-3,4-dihydro-2H-1-benzopyran-3-yl]-6-methylthieno[2,3-b]pyridine-2-carboxamide] stands 0.001 to 0.05 µM; under `CCOC1CN(c2ccc3c(c2)OC[C@H](NC(=O)c2sc4nc(C)cc(C)c4c2N)C3)C[C@@H]1N` (stereo in doubt) [Example 323, 3-amino-N-[(3R)-7-[(3S,4R)-3-amino-4-ethoxypyrrolidin-1-yl]-3,4-dihydro-2H-1-benzopyran-3-yl]-4,6-dimethylthieno[2,3-b]pyridine-2-carboxamide], 0.001 to 0.05 µM.
On to `Cc1ccc2c(N)c(C(=O)N[C@H]3COc4cc(N5CC6(C5)OCC[C@@H]6N)ccc4C3)sc2n1` [Example 338, 3-amino-N-[(3R)-7-[(8S)-8-amino-5-oxa-2-azaspiro[3.4]octan-2-yl]-3,4-dihydro-2H-1-benzopyran-3-yl]-6-methylthieno[2,3-b]pyridine-2-carboxamide], for which the IC50 is 0.05 to 0.2 µM.
As for `Cc1ccc2c(N)c(C(=O)N[C@H]3COc4cc(N5C[C@@H]6CCN[C@@H]6C5)ccc4C3)sc2n1` [Example 304, N-[(3R)-7-[(3aS,6aS)-octahydropyrrolo[3,4-b]pyrrol-5-yl]-3,4-dihydro-2H-1-benzopyran-3-yl]-3-amino-6-methylthieno[2,3-b]pyridine-2-carboxamide], the figure is 0.001 to 0.05 µM.
